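Cells were grown in 96-well plates and exposed to each compound for 48 hours at five concentrations; endpoints were interpolated linearly between bracketing concentrations, or set to the highest concentration if not reached. The concentration for 50% growth inhibition is given as GI50. TGI denotes the concentration required for complete inhibition of growth.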
Assays:
Assay in all cases: NCI tumour cell line growth inhibition, 48 h
SR leukemia = system: SR leukemia
RXF 393 renal = system: RXF 393 renal
CAKI-1 renal = system: CAKI-1 renal
NCI-H226 lung = system: NCI-H226 lung
ACHN renal = system: ACHN renal
SK-MEL-28 melanoma = system: SK-MEL-28 melanoma
A549 NSCLC = system: A549 NSCLC
NCI-H460 lung = system: NCI-H460 lung
HL-60(TB) leukemia = system: HL-60(TB) leukemia
M14 melanoma = system: M14 melanoma
OVCAR-3 ovarian = system: OVCAR-3 ovarian
RPMI-8226 leukemia = system: RPMI-8226 leukemia
CCRF-CEM leukemia = system: CCRF-CEM leukemia
SF-295 CNS = system: SF-295 CNS
786-0 renal = system: 786-0 renal
SN12C renal = system: SN12C renal
DU-145 prostate = system: DU-145 prostate
UO-31 renal = system: UO-31 renal
EKVX NSCLC = system: EKVX NSCLC
SK-MEL-5 melanoma = system: SK-MEL-5 melanoma
BT-549 breast = system: BT-549 breast
MOLT-4 leukemia = system: MOLT-4 leukemia
IGROV1 ovarian = system: IGROV1 ovarian
KM12 colon = system: KM12 colon
COLO 205 colon = system: COLO 205 colon
HCT-116 colon = system: HCT-116 colon
OVCAR-8 ovarian = system: OVCAR-8 ovarian
PC-3 prostate = system: PC-3 prostate
HCT-15 colon = system: HCT-15 colon
K-562 leukemia = system: K-562 leukemia
TK-10 renal = system: TK-10 renal
SK-MEL-2 melanoma = system: SK-MEL-2 melanoma
SF-268 CNS = system: SF-268 CNS
MDA-MB-435 = system: MDA-MB-435
UACC-62 melanoma = system: UACC-62 melanoma
UACC-257 melanoma = system: UACC-257 melanoma
HT29 colon = system: HT29 colon
SNB-75 CNS = system: SNB-75 CNS
NCI-H23 lung = system: NCI-H23 lung
HOP-62 NSCLC = system: HOP-62 NSCLC
MCF7 breast = system: MCF7 breast
SNB-19 CNS = system: SNB-19 CNS
SW-620 colon = system: SW-620 colon
LOX IMVI melanoma = system: LOX IMVI melanoma
NCI/ADR-RES ovarian = system: NCI/ADR-RES ovarian
HS 578T breast = system: HS 578T breast
T-47D breast = system: T-47D breast
U251 CNS = system: U251 CNS
SK-OV-3 ovarian = system: SK-OV-3 ovarian
OVCAR-4 ovarian = system: OVCAR-4 ovarian
MDA-MB-231 breast = system: MDA-MB-231 breast
HOP-92 NSCLC = system: HOP-92 NSCLC
NCI-H522 lung = system: NCI-H522 lung
MALME-3M melanoma = system: MALME-3M melanoma
A498 renal = system: A498 renal
HCC-2998 colon = system: HCC-2998 colon
OVCAR-5 ovarian = system: OVCAR-5 ovarian

Q: For COc1ccc(C2C(C#N)=C(N)Oc3c2sc2c(Br)cccc32)cc1 (centres undefined), which GI50 (SR leukemia) is on record?
A: 0.473 µM

Q: And the TGI (SR leukemia)?
A: 3.37 µM

Q: And the GI50 (RXF 393 renal)?
A: 1.94 µM

Q: And the TGI (RXF 393 renal)?
A: 5.96 µM

Q: And the GI50 (CAKI-1 renal)?
A: 2.47 µM

Q: And the TGI (CAKI-1 renal)?
A: 18.2 µM

Q: What about the GI50 (NCI-H226 lung) of the same compound?
A: 6.62 µM

Q: What about the TGI (NCI-H226 lung) of the same compound?
A: 24 µM

Q: What about the GI50 (ACHN renal) of the same compound?
A: 4.82 µM

Q: And the TGI (ACHN renal)?
A: 19.3 µM

Q: And the GI50 (SK-MEL-28 melanoma)?
A: 8.15 µM

Q: And the TGI (SK-MEL-28 melanoma)?
A: 24.1 µM

Q: What about the GI50 (A549 NSCLC) of the same compound?
A: 4.69 µM

Q: What about the TGI (A549 NSCLC) of the same compound?
A: 21 µM

Q: What about the GI50 (NCI-H460 lung) of the same compound?
A: 2.08 µM

Q: And the TGI (NCI-H460 lung)?
A: 21.9 µM

Q: What about the GI50 (HL-60(TB) leukemia) of the same compound?
A: 1.12 µM

Q: And the TGI (HL-60(TB) leukemia)?
A: 3.73 µM

Q: And the GI50 (M14 melanoma)?
A: 1.46 µM

Q: And the TGI (M14 melanoma)?
A: 6.8 µM

Q: What about the GI50 (OVCAR-3 ovarian) of the same compound?
A: 0.979 µM

Q: What about the TGI (OVCAR-3 ovarian) of the same compound?
A: 3.75 µM

Q: What about the GI50 (RPMI-8226 leukemia) of the same compound?
A: 2.9 µM

Q: What about the TGI (RPMI-8226 leukemia) of the same compound?
A: 12.5 µM

Q: What about the GI50 (CCRF-CEM leukemia) of the same compound?
A: 1.63 µM

Q: And the TGI (CCRF-CEM leukemia)?
A: 7.02 µM

Q: And the GI50 (SF-295 CNS)?
A: 0.907 µM

Q: And the TGI (SF-295 CNS)?
A: 6.54 µM

Q: And the GI50 (786-0 renal)?
A: 3.25 µM

Q: And the TGI (786-0 renal)?
A: 13 µM

Q: What about the GI50 (SN12C renal) of the same compound?
A: 4 µM

Q: What about the TGI (SN12C renal) of the same compound?
A: 17 µM

Q: And the GI50 (DU-145 prostate)?
A: 3.27 µM

Q: What about the TGI (DU-145 prostate) of the same compound?
A: 11.2 µM

Q: What about the GI50 (UO-31 renal) of the same compound?
A: 3.21 µM

Q: And the TGI (UO-31 renal)?
A: 17.7 µM

Q: What about the GI50 (EKVX NSCLC) of the same compound?
A: 4.38 µM

Q: And the TGI (EKVX NSCLC)?
A: 21 µM

Q: And the GI50 (SK-MEL-5 melanoma)?
A: 2.4 µM

Q: What about the TGI (SK-MEL-5 melanoma) of the same compound?
A: 10.7 µM

Q: What about the GI50 (BT-549 breast) of the same compound?
A: 4.76 µM

Q: And the TGI (BT-549 breast)?
A: 25.3 µM

Q: What about the GI50 (MOLT-4 leukemia) of the same compound?
A: 1.55 µM

Q: What about the TGI (MOLT-4 leukemia) of the same compound?
A: 6.78 µM

Q: And the GI50 (IGROV1 ovarian)?
A: 2.29 µM

Q: What about the TGI (IGROV1 ovarian) of the same compound?
A: 20.9 µM

Q: And the GI50 (KM12 colon)?
A: 1.92 µM

Q: What about the TGI (KM12 colon) of the same compound?
A: 14 µM

Q: What about the GI50 (COLO 205 colon) of the same compound?
A: 2.23 µM

Q: What about the TGI (COLO 205 colon) of the same compound?
A: 5.39 µM

Q: And the GI50 (HCT-116 colon)?
A: 1.93 µM

Q: What about the TGI (HCT-116 colon) of the same compound?
A: 12.3 µM

Q: What about the GI50 (OVCAR-8 ovarian) of the same compound?
A: 4.99 µM

Q: What about the TGI (OVCAR-8 ovarian) of the same compound?
A: 25.3 µM

Q: What about the GI50 (PC-3 prostate) of the same compound?
A: 2.86 µM

Q: And the TGI (PC-3 prostate)?
A: 17.3 µM

Q: And the GI50 (HCT-15 colon)?
A: 0.93 µM

Q: And the TGI (HCT-15 colon)?
A: 10.7 µM

Q: And the GI50 (K-562 leukemia)?
A: 0.404 µM

Q: What about the TGI (K-562 leukemia) of the same compound?
A: 5.79 µM

Q: And the GI50 (TK-10 renal)?
A: 8.48 µM

Q: And the TGI (TK-10 renal)?
A: 22.2 µM

Q: What about the GI50 (SK-MEL-2 melanoma) of the same compound?
A: 2.38 µM

Q: And the TGI (SK-MEL-2 melanoma)?
A: 12.7 µM

Q: What about the GI50 (SF-268 CNS) of the same compound?
A: 4.62 µM

Q: And the TGI (SF-268 CNS)?
A: 21.5 µM

Q: What about the GI50 (MDA-MB-435) of the same compound?
A: 0.373 µM

Q: And the TGI (MDA-MB-435)?
A: 2.54 µM

Q: What about the GI50 (UACC-62 melanoma) of the same compound?
A: 0.996 µM

Q: What about the TGI (UACC-62 melanoma) of the same compound?
A: 15.4 µM

Q: What about the GI50 (UACC-257 melanoma) of the same compound?
A: 13.6 µM

Q: And the TGI (UACC-257 melanoma)?
A: 32.7 µM

Q: And the GI50 (HT29 colon)?
A: 3.8 µM

Q: And the TGI (HT29 colon)?
A: 11.2 µM

Q: What about the GI50 (SNB-75 CNS) of the same compound?
A: 1.61 µM

Q: And the TGI (SNB-75 CNS)?
A: 8.06 µM

Q: What about the GI50 (NCI-H23 lung) of the same compound?
A: 2.64 µM

Q: And the TGI (NCI-H23 lung)?
A: 14.2 µM

Q: And the GI50 (HOP-62 NSCLC)?
A: 4.48 µM

Q: And the TGI (HOP-62 NSCLC)?
A: 17.5 µM

Q: What about the GI50 (MCF7 breast) of the same compound?
A: 0.467 µM

Q: And the TGI (MCF7 breast)?
A: 12 µM

Q: And the GI50 (SNB-19 CNS)?
A: 4.04 µM

Q: And the TGI (SNB-19 CNS)?
A: 21.6 µM

Q: What about the GI50 (SW-620 colon) of the same compound?
A: 1.87 µM

Q: What about the TGI (SW-620 colon) of the same compound?
A: 86.6 µM

Q: What about the GI50 (LOX IMVI melanoma) of the same compound?
A: 2.03 µM

Q: What about the TGI (LOX IMVI melanoma) of the same compound?
A: 12.8 µM

Q: And the GI50 (NCI/ADR-RES ovarian)?
A: 0.767 µM

Q: And the TGI (NCI/ADR-RES ovarian)?
A: 4.26 µM

Q: And the GI50 (HS 578T breast)?
A: 3.3 µM

Q: And the TGI (HS 578T breast)?
A: 36.1 µM

Q: And the GI50 (T-47D breast)?
A: 3.13 µM

Q: And the TGI (T-47D breast)?
A: 15 µM

Q: And the GI50 (U251 CNS)?
A: 3.25 µM

Q: And the TGI (U251 CNS)?
A: 12.4 µM

Q: And the GI50 (SK-OV-3 ovarian)?
A: 4.68 µM

Q: And the TGI (SK-OV-3 ovarian)?
A: 19.9 µM

Q: And the GI50 (OVCAR-4 ovarian)?
A: 3.02 µM

Q: What about the TGI (OVCAR-4 ovarian) of the same compound?
A: 21.9 µM

Q: What about the GI50 (MDA-MB-231 breast) of the same compound?
A: 2.78 µM

Q: What about the TGI (MDA-MB-231 breast) of the same compound?
A: 12.7 µM

Q: What about the GI50 (HOP-92 NSCLC) of the same compound?
A: 8.88 µM

Q: What about the TGI (HOP-92 NSCLC) of the same compound?
A: 26.4 µM

Q: And the GI50 (NCI-H522 lung)?
A: 1.75 µM

Q: And the TGI (NCI-H522 lung)?
A: 6.28 µM

Q: What about the GI50 (MALME-3M melanoma) of the same compound?
A: 4.75 µM

Q: And the TGI (MALME-3M melanoma)?
A: 25.3 µM

Q: What about the GI50 (A498 renal) of the same compound?
A: 1.37 µM

Q: And the TGI (A498 renal)?
A: 13.9 µM

Q: And the GI50 (HCC-2998 colon)?
A: 1.64 µM

Q: And the TGI (HCC-2998 colon)?
A: 6.25 µM

Q: And the GI50 (OVCAR-5 ovarian)?
A: 8.95 µM

Q: What about the TGI (OVCAR-5 ovarian) of the same compound?
A: 26.5 µM
